Results on two compounds are retold here after patent US20110311593A1, “N-HYDROXYLATED AMIDINE-, GUANIDINE- AND/OR AMINOHYDRAZONE-TYPE PRODRUGS FOR APPLICATION ON THE SKIN” (priority 2009, published 2011).

The structures appear in SMILES notation.

The nature of this series: In vitro skin permeation profiles (permeation cell). The format is in vitro ADME, human. How it is done:
Comparison In Vitro Skin Permeation Profiles of Amanidine Prodrugs • System: in-vitro permeation cell (9 ml acceptor volume/1.539 cm^2 diffusion area, 32° C.) • Acceptor medium: phosphate buffer pH 5.5+0.1% NaN3 according to DAB 10 • Active ingredient: benzamidine, benzamidoxime (from Ex. 1) • Skin type: human full skin, ID 899 (belly person) • Vehicle: suspension in olive oil (2% by weight, 50 mg suspension per cell), applied to a circular nonwoven disk made of synthetic wool ([…] type I/20) and occlusively covered with a PSA film (silicone adhesive) as “over-plaster”.

In the case of `N=C(N)c1ccccc1` [Benzamidine, benzamidine, reference compound], the permeated amount by setting is: (0 h, human full skin, 2% by weight suspension in olive oil, acceptor phosphate buffer pH 5.5, 32° C.) 0; (8 h, human full skin, 2% by weight suspension in olive oil, acceptor phosphate buffer pH 5.5, 32° C.) 2.24; (24 h, human full skin, 2% by weight suspension in olive oil, acceptor phosphate buffer pH 5.5, 32° C.) 13.7; (32 h, human full skin, 2% by weight suspension in olive oil, acceptor phosphate buffer pH 5.5, 32° C.) 21.2; (48 h, human full skin, 2% by weight suspension in olive oil, acceptor phosphate buffer pH 5.5, 32° C.) 41.3.

On to `NC(=NO)c1ccccc1` [Benzamidinoxime, Benzamidoxime], for which the “comparison of the permeated amounts of benzamidine and benzamidoxime” value was “advantage of the benzamidoxime being clearly visible”. Under “female, human, 0 h, 2 % by weight, pH 5.5”, this compound had a permeated amount of 0. Also, for the setting “female, human, 8 h, 2 % by weight, pH 5.5”, the permeated amount was 50.2. The compound further yielded a permeated amount (female, human, 24 h, 2 % by weight, pH 5.5) of 235. The compound further had a permeated amount (female, human, 32 h, 2 % by weight, pH 5.5) of 315. The permeated amount (female, human, 48 h, 2 % by weight, pH 5.5) came out at 403.
